“And” between values parts separate entries of the source, which are not always exact repeats. Equal values may be shown once. Values belong to the compound of their own block, whether it stands above or below them.
System: 653999-131-R-J2-PDC complex spheroids, growth % test/control
Experiment: Anticancer human tumor 653999-131-R-J2-PDC patient-derived lung adenocarcinoma cell line growth inhibition [AhR]
Details: for viability, T/C: stronger effect = lower value
Outline: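 Complex tumor spheroids co-cultured with HUVEC and human MSC stroma; AhR antagonists tested in combination with standard-of-care and investigational agents. Top concentration at or near clinical Cmax (else 10 microM), half-log dilutions; growth expressed as percent test/control.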

[1] = curve of first compound, second compound 0.1 µM
[2] = curve of first compound, second compound 0.316 µM
[3] = curve of first compound, second compound 1 µM
[4] = curve of first compound, second compound 3.16 µM
[5] = curve of first compound, second compound 10 µM
[6] = second compound 0.1 µM, first compound 0.0316 µM
[7] = second compound 0.1 µM, first compound 0.1 µM
[8] = second compound 0.1 µM, first compound 0.316 µM
[9] = second compound 0.1 µM, first compound 1 µM
[10] = second compound 0.316 µM, first compound 0.0316 µM
[11] = second compound 0.316 µM, first compound 0.1 µM
[12] = second compound 0.316 µM, first compound 0.316 µM
[13] = second compound 0.316 µM, first compound 1 µM
[14] = second compound 1 µM, first compound 0.0316 µM
[15] = second compound 1 µM, first compound 0.1 µM
[16] = second compound 1 µM, first compound 0.316 µM
[17] = second compound 1 µM, first compound 1 µM
[18] = second compound 3.16 µM, first compound 0.0316 µM
[19] = second compound 3.16 µM, first compound 0.1 µM
[20] = second compound 3.16 µM, first compound 0.316 µM
[21] = second compound 3.16 µM, first compound 1 µM
[22] = second compound 10 µM, first compound 0.0316 µM
[23] = second compound 10 µM, first compound 0.1 µM
[24] = second compound 10 µM, first compound 0.316 µM
[25] = second compound 10 µM, first compound 1 µM
[26] = second compound 0.1 µM, first compound 3.16 µM
[27] = second compound 0.1 µM, first compound 10 µM
[28] = second compound 0.316 µM, first compound 3.16 µM
[29] = second compound 0.316 µM, first compound 10 µM
[30] = second compound 1 µM, first compound 3.16 µM
[31] = second compound 1 µM, first compound 10 µM
[32] = second compound 3.16 µM, first compound 3.16 µM
[33] = second compound 3.16 µM, first compound 10 µM
[34] = second compound 10 µM, first compound 3.16 µM
[35] = second compound 10 µM, first compound 10 µM
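Also: spheroids exposed to agents for seven days.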
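For viability, T/C in this document: 100% = DMSO vehicle control viability.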

SMILES: CC1COCCN1c1cc(-c2ccnn2C)c2ccnc(-c3ccn[nH]3)c2n1 (stereo unspecified) + Cc1cncc(-c2nc(NCCc3c[nH]c4ccccc34)c3ncn(C(C)C)c3n2)c1
IC50 [1]: 123 nM
IC50 [2]: 129 nM
IC50 [3]: 170 nM
IC50 [4]: 149 nM
IC50 [5]: < 3.16 nM
viability, T/C (second compound 0.1 µM, first compound 0.00316 µM): 100%
viability, T/C (second compound 0.1 µM, first compound 0.01 µM): 94.6%
viability, T/C [6]: 76.3%
viability, T/C [7]: 52.3%
viability, T/C [8]: 36.7%
viability, T/C [9]: 25.2%
viability, T/C (second compound 0.316 µM, first compound 0.00316 µM): 92.8%
viability, T/C (second compound 0.316 µM, first compound 0.01 µM): 92.4%
viability, T/C [10]: 84.8%
viability, T/C [11]: 53.5%
viability, T/C [12]: 35.5%
viability, T/C [13]: 26.4%
viability, T/C (second compound 1 µM, first compound 0.00316 µM): 107%
viability, T/C (second compound 1 µM, first compound 0.01 µM): 96.3%
viability, T/C [14]: 89.5%
viability, T/C [15]: 65.6%
viability, T/C [16]: 31.6%
viability, T/C [17]: 23.5%
viability, T/C (second compound 3.16 µM, first compound 0.00316 µM): 98.2%
viability, T/C (second compound 3.16 µM, first compound 0.01 µM): 98.1%
viability, T/C [18]: 89.6%
viability, T/C [19]: 56.2%
viability, T/C [20]: 38.5%
viability, T/C [21]: 29.1%
viability, T/C (second compound 10 µM, first compound 0.00316 µM): 36.8%
viability, T/C (second compound 10 µM, first compound 0.01 µM): 46.9%
viability, T/C [22]: 38%
viability, T/C [23]: 34.6%
viability, T/C [24]: 25.7%
viability, T/C [25]: 27%

SMILES: CC1(C)CCC(CN2CCN(c3ccc(C(=O)NS(=O)(=O)c4ccc(NCC5CCOCC5)c([N+](=O)[O-])c4)c(Oc4cnc5[nH]ccc5c4)c3)CC2)=C(c2ccc(Cl)cc2)C1
viability, T/C (compound 0.0316 µM): 108% (2×) and 103%
viability, T/C (compound 0.1 µM): 97.3% and 103% and 116%
viability, T/C (compound 0.316 µM): 98% and 88.8% and 104%
viability, T/C (compound 1 µM): 105% and 102% and 104%
viability, T/C (compound 3.16 µM): 106% and 99.7% and 108%
viability, T/C (compound 10 µM): 85.9% and 58.9% and 74.9%
IC50 (curve of compound): > 10000 nM

SMILES: CC(C)CC(NC(=O)C(Cc1ccccc1)NC(=O)c1cnccn1)B(O)O (stereo unspecified)
viability, T/C (compound 0.000949 µM): 112% and 106% and 110%
viability, T/C (compound 0.003 µM): 118% and 114% and 124%
viability, T/C (compound 0.00949 µM): 107% and 96.5% and 60.7%
viability, T/C (compound 0.03 µM): 30.4% and 28.9% and 21.5%
viability, T/C (compound 0.0949 µM): 11.3% and 14.9% and 9.51%
viability, T/C (compound 0.3 µM): 3.46% and 4.18% and 3.51%
IC50 (curve of compound): 22.4 nM and 21.1 nM and 12.4 nM

SMILES: CC(C)c1c(-c2ccccc2)nc2c(C#N)c[nH]n2c1=O
viability, T/C (compound 0.0316 µM): 109% and 93.9% and 110%
viability, T/C (compound 0.1 µM): 112% (2×) and 109%
viability, T/C (compound 0.316 µM): 96.8% and 108% and 104%
viability, T/C (compound 1 µM): 90.2% and 116% and 109%
viability, T/C (compound 3.16 µM): 103% and 101% (2×)
viability, T/C (compound 10 µM): 96.2% (2×) and 103%
IC50 (curve of compound): > 10000 nM

SMILES: NS(=O)(=O)OCC1CC(n2ccc3c(NC4CCc5ccccc54)ncnc32)CC1O (stereo unspecified) + CC(CO)NC(=O)c1cc(-c2ccc(Cl)cc2)nn(-c2cnn(C)c2)c1=O
IC50 [1]: > 10000 nM
IC50 [2]: > 10000 nM
IC50 [3]: > 10000 nM
IC50 [4]: > 10000 nM
IC50 [5]: > 10000 nM
viability, T/C [6]: 108%
viability, T/C [7]: 99.8%
viability, T/C [8]: 109%
viability, T/C [9]: 98.9%
viability, T/C [26]: 63.4%
viability, T/C [27]: 51%
viability, T/C [10]: 108%
viability, T/C [11]: 98.7%
viability, T/C [12]: 101%
viability, T/C [13]: 80.4%
viability, T/C [28]: 53.1%
viability, T/C [29]: 54.5%
viability, T/C [14]: 101%
viability, T/C [15]: 111%
viability, T/C [16]: 114%
viability, T/C [17]: 53.8%
viability, T/C [30]: 53.4%
viability, T/C [31]: 52.3%
viability, T/C [18]: 101%
viability, T/C [19]: 102%
viability, T/C [20]: 99.9%
viability, T/C [21]: 54.5%
viability, T/C [32]: 52%
viability, T/C [33]: 58.4%
viability, T/C [22]: 97.9%
viability, T/C [23]: 96.9%
viability, T/C [24]: 93.5%
viability, T/C [25]: 54.1%
viability, T/C [34]: 51%
viability, T/C [35]: 56.9%

SMILES: COc1cc(C2c3cc4c(cc3C(OC3OC5COC(C)OC5C(O)C3O)C3COC(=O)C23)OCO4)cc(OC)c1O (stereo unspecified)
viability, T/C (compound 0.0316 µM): 99.2% and 89.8% and 87.8%
viability, T/C (compound 0.1 µM): 79.3% and 77.8% and 77.9%
viability, T/C (compound 0.316 µM): 61.9% and 67.7% and 69.8%
viability, T/C (compound 1 µM): 49.1% and 55.2% and 50.4%
viability, T/C (compound 3.16 µM): 39.3% and 43.3% and 43.5%
viability, T/C (compound 10 µM): 29.4% and 25.6% and 27.5%
IC50 (curve of compound): 924 nM and 1560 nM and 1450 nM

Second part, led by results:

IC50 [1]: 2990 nM
IC50 [2]: 3320 nM
IC50 [3]: 3300 nM
IC50 [4]: 3480 nM
IC50 [5]: 1460 nM
SMILES: O=C(C=Cc1cccc(S(=O)(=O)Nc2ccccc2)c1)NO + Cc1cncc(-c2nc(NCCc3c[nH]c4ccccc34)c3ncn(C(C)C)c3n2)c1
viability, T/C [6]: 91.4%
viability, T/C [7]: 96.3%
viability, T/C [8]: 88%
viability, T/C [9]: 74.5%
viability, T/C [26]: 49.2%
viability, T/C [27]: 10.7%
viability, T/C [10]: 94.1%
viability, T/C [11]: 96.7%
viability, T/C [12]: 89%
viability, T/C [13]: 76.5%
viability, T/C [28]: 52.2%
viability, T/C [29]: 10.6%
viability, T/C [14]: 95.8%
viability, T/C [15]: 104%
viability, T/C [16]: 98.3%
viability, T/C [17]: 91.2%
viability, T/C [30]: 51.6%
viability, T/C [31]: 9.38%
viability, T/C [18]: 104%
viability, T/C [19]: 99.5%
viability, T/C [20]: 95.1%
viability, T/C [21]: 79.3%
viability, T/C [32]: 53.7%
viability, T/C [33]: 11.8%
viability, T/C [22]: 54.7%
viability, T/C [23]: 50.4%
viability, T/C [24]: 50.4%
viability, T/C [25]: 51.7%
viability, T/C [34]: 46.9%
viability, T/C [35]: 8.52%

IC50 (compound alone, run of 05/31/2022): > 10000 nM
SMILES: CC(CO)NC(=O)c1cc(-c2ccc(Cl)cc2)nn(-c2cnn(C)c2)c1=O (stereo unspecified)
viability, T/C (compound 0.1 µM): 93.8% [middle of 20 runs]

IC50 [1]: 1940 nM
IC50 [2]: 3060 nM
IC50 [3]: 4740 nM
IC50 [4]: 1600 nM
IC50 [5]: 6310 nM
SMILES: Nc1ccn(C2OC(CO)C(O)C2(F)F)c(=O)n1 (stereo unspecified) + CC(CO)NC(=O)c1cc(-c2ccc(Cl)cc2)nn(-c2cnn(C)c2)c1=O
viability, T/C [6]: 65.4%
viability, T/C [7]: 66.8%
viability, T/C [8]: 61.2%
viability, T/C [9]: 48%
viability, T/C [26]: 48.4%
viability, T/C [27]: 42.9%
viability, T/C [10]: 73.9%
viability, T/C [11]: 69.8%
viability, T/C [12]: 62.2%
viability, T/C [13]: 58.4%
viability, T/C [28]: 46.5%
viability, T/C [29]: 45.3%
viability, T/C [14]: 67.5%
viability, T/C [15]: 69.9%
viability, T/C [16]: 58.6%
viability, T/C [17]: 58.1%
viability, T/C [30]: 50.4%
viability, T/C [31]: 47.1%
viability, T/C [18]: 78.1%
viability, T/C [19]: 74%
viability, T/C [20]: 63.7%
viability, T/C [21]: 55.7%
viability, T/C [32]: 42.7%
viability, T/C [33]: 40.9%
viability, T/C [22]: 96.5%
viability, T/C [23]: 76.8%
viability, T/C [24]: 64.4%
viability, T/C [25]: 58%
viability, T/C [34]: 51.7%
viability, T/C [35]: 48.4%

IC50 (curve of compound): 3840 nM and 3930 nM and 4020 nM
SMILES: Nc1ccccc1NC(=O)c1ccc(CNC(=O)OCc2cccnc2)cc1
viability, T/C (compound 0.0316 µM): 98% and 89.6% and 98.3%
viability, T/C (compound 0.1 µM): 102% and 87.1% and 81%
viability, T/C (compound 0.316 µM): 83% and 80.2% and 77.3%
viability, T/C (compound 1 µM): 81% and 70.5% and 65.6%
viability, T/C (compound 3.16 µM): 57.5% and 63.4% and 69.3%
viability, T/C (compound 10 µM): 16% and 12.8% and 13.9%

IC50 (curve of compound): > 10000 nM
SMILES: O=C(c1cc(Cc2n[nH]c(=O)c3ccccc23)ccc1F)N1CCN(C(=O)C2CC2)CC1
viability, T/C (compound 0.0316 µM): 107% and 92.7% and 109%
viability, T/C (compound 0.1 µM): 102% and 99.8% and 95.5%
viability, T/C (compound 0.316 µM): 96.7% and 98.2% and 106%
viability, T/C (compound 1 µM): 98.8% and 93.7% and 86.1%
viability, T/C (compound 3.16 µM): 97.4% and 95.6% and 95.2%
viability, T/C (compound 10 µM): 86% and 84.6% and 77.5%

IC50 (curve of compound): > 10000 nM
SMILES: COc1cc(Nc2ncc3c(n2)-c2ccc(Cl)cc2C(c2c(F)cccc2OC)=NC3)ccc1C(=O)O
viability, T/C (compound 0.0316 µM): 93.1% and 93.5% and 98%
viability, T/C (compound 0.1 µM): 73% and 85% and 75.2%
viability, T/C (compound 0.316 µM): 75.1% and 70.2% and 68.6%
viability, T/C (compound 1 µM): 71.5% and 66.9% and 67.2%
viability, T/C (compound 3.16 µM): 66.2% and 68.2% and 70.6%
viability, T/C (compound 10 µM): 60.7% and 64.3% and 65.4%
